PMC10526274, “Epithelial-Immune Cell Crosstalk Determines the Activation of Immune Cells In Vitro by the Human Cathelicidin LL-37 at Low Physiological Concentrations” (Biomolecules, 2023)

Tests used:
[1] = tested on: monocytes in Caco-2/Monocytes co-culture; assay: Multiplex phosphoprotein signaling in monocyte lysates, Caco-2/monocytes co-culture + LL-37; type: cell-based, human; settings: monocyte lysate, 1 µM LL-37, 2 h, mean MFI normalized to β-tubulin
Experimental: Primary blood monocytes were isolated from PBMCs by plastic adhesion in the wells of a 24-well plate 24 h prior to the experiment. For that, 2 × 10^6 PBMC were seeded in each well in 2 mL of RPMI-1640 without supplements and kept for 1 h in a humidified CO2-incubator (5% CO2, 37 °C). Then, the adhered monocytes were thoroughly washed 3 times with the culture medium without supplements, and 600 µL of the complete RPMI-1640, supplemented with 10% Human AB serum, was added into each well. Then, 24 h later, the medium in the wells of a 24-well plate was replaced by a fresh medium with or without 1 µM of LL-37, and the permeable inserts with Caco-2 monolayers with TEER > 400 Ω × cm^2, containing 400 μL of the complete medium in their apical chamber, were immediately placed into the appropriate wells for 2 h. Then, 2 h later, the culture medium and the inserts were carefully removed, and the cells in each well were washed with PBS and lysed in 100 µL of MILLIPLEX MAP Lysis Buffer (cat. #43-040, Merck, Darmstadt, Germany), containing phosphatase inhibitors including 1 mM sodium orthovanadate (Na3VO4). To prevent protein degradation, a protease inhibitor cocktail (cat. #535140, Merck) was freshly added to the MILLIPLEX MAP Lysis Buffer. Cell lysate preparation was performed in accordance with the manufacturer’s instructions.
The phosphorylation of the following key cell signaling kinases and transcription factors was measured in cell lysates by using the MILLIPLEX multi-pathway magnetic bead 9-plex kit (#48-680MAG, Merck), containing phosphorylation state-specific antibodies: ERK/MAP kinase 1/2 (Thr185/Tyr187), Akt (Ser473), STAT3 (Ser727), JNK (Thr183/Tyr185), p70S6 kinase (Thr412), NF-κB (Ser536), STAT5A/B (Tyr694/699), CREB (Ser133), and p38 (Thr180/Tyr182). β-Tubulin MAPmate magnetic beads (#46-713MAG, Merck) were used as an assay normalization control to normalize the total protein level between the samples. A multiplex assay was carried out in accordance with the manufacturer’s instructions with overnight incubation of the samples with primary antibodies to phosphorylated signaling proteins on the MAGPIX system (Merck) using the xPONENT 4.2 software (Merck). The final analysis of the acquired fluorescence data was performed with the MILLIPLEX Analyst v5.1 software (Merck). Normalized MFI values were compared with an unpaired two-sample t-test using GraphPad Prism v.8.0.1 (GraphPad Software). The p-values ≤ 0.05 were considered significant.

human PBMCs = settings: LL-37 at 5 μg/mL; cited from earlier work
Experimental: In contrast to the chemotactic potential of LL-37, available data on its ability to induce cytokine production by different cells argue for the absence of its biological activity at low physiological concentrations of ∼5 μg/mL observed in non-inflamed tissues. […] In the current study, we used LL-37 at a concentration of 1 μM (4.5 μg/mL) to study whether this peptide had immunomodulatory activity under non-inflamed physiological conditions. In ou ...

Substance: LL-37: the only human cathelicidin, host defense antimicrobial peptide of 37 a.a. residues, produced by solid-phase peptide synthesis
- phosphorylated STAT3 ([1]; control 0.06): 0.06 MFI
- phosphorylated NF-kB ([1]; control 0.09): 0.09 MFI
- phosphorylated STAT5 ([1]; control 0.09): 0.09 MFI
- phosphorylated JNK ([1]; control 48.84): 176.7 MFI
- phosphorylated p70S6K ([1]; control 472.48): 902.08 MFI
- phosphorylated Akt ([1]; control 2712): 2358 MFI
- phosphorylated ERK 1/2 ([1]; control 5812): 11464 MFI
- phosphorylated p38 ([1]; control 17697): 21951 MFI
- phosphorylated CREB ([1]; control 81479): 106317 MFI
- Production of TNFα or IL-10 in human PBMCs (human PBMCs): not able to increase the production of TNFα or IL-10
